Like-named read-outs stand apart in the source and are kept apart here.

One test deals with T1, Lipoxygenase (Homo sapiens, UniProt P09917).
T1 construct: heparin-treated vein blood of a healthy person; from tissue; host or cells: human heparinised venous whole blood (leukocytes)
T1 sequence (P09917 1-674): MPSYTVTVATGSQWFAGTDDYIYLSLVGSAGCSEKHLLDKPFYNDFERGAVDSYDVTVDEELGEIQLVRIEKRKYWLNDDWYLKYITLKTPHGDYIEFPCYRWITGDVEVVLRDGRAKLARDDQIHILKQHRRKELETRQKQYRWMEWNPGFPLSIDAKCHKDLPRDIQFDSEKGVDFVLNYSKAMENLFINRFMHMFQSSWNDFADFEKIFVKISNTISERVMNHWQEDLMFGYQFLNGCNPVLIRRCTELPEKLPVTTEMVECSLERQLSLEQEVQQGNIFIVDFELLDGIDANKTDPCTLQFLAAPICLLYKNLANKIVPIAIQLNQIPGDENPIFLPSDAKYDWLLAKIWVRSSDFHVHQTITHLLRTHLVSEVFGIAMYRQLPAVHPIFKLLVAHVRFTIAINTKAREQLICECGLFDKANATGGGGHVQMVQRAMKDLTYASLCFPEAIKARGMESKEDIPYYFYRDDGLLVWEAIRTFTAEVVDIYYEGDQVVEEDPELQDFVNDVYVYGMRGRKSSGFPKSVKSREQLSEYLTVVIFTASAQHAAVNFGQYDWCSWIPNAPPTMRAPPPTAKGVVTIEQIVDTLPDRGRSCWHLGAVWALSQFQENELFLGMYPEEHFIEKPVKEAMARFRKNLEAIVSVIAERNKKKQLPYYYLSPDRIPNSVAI
The experiment in a line: Lipoxygenase inhibitory activity evaluation: LTB4 and 5-HETE production in A23187-stimulated whole blood. The test is classed as cell-based, healthy man. The note with it: 10⁻⁵ M, A23187 25 µM. The protocol: To 1 ml of heparin-treated vein blood of a healthy person without an administration of drugs was added 1 µl of a DMSO solution of the drug test sample listed in Table 5 (final 10⁻⁵ M), and after treatment at 37°C for 5 minutes, 5 µl of a DMSO solution of A23187 was added (final 25 µM) and the treatment carried out at 37°C for 15 minutes, followed by ice-cooling. After the addition of 10 µl of a DMSO solution of 100 ng of 15-HETE as the internal standard substance for quantitation, 0.8 ml of acetonitrile was added, and the precipitates formed were removed by centrifugation. Then, LTB₄ and 5-HETE in the supernatant were subjected to HPLC separation and quantitation (ref. F.J. Sweeney, et al., Prostaglandins Leukotrienes & Med., 28, 73 (1987)).

The test system of a further test is anti-TNP IgG. Put plainly: Anti-TNP IgG production by cultured spleen cells of TNP-KLH-immunized mouse. The note with it: for Anti-TMP antibody production IgG: TNP-KLH 10 ng/ml, no addition 8.1. Type of test: cell-based, BALB/C mouse. The protocol:
(§1) An 8 weeks old BALB/C mouse (♀) was immunized by an intraperitoneal injection of 10 µg of TNP-KLH (trinitrophenyl-key hole limpet hemocyanine) and 2 mg of aluminum hydroxide gel, and after 3 weeks, 1 µg of TNP-KLH and 2 mg of aluminum hydroxide gel were boosted, and 4 weeks later, the spleen was enucleated.
(§2) The spleen cells (6 x 10⁶) were cultured together with 10 ng/ml of TNP-KLH, in the presence or non-presence of the compound of the present invention (10⁻⁵ to 10⁻⁷ M), in 1 ml of RPMI-1640 medium (containing 10% fetal bovine serum) for 2 days, followed by washing to remove the antigen and the drug, and the washed cells were resuspended in a fresh medium containing no antigen and further cultured for 5 days. All cultivations were performed under 5% CO₂ at 37°C. After completion of the culturing, the supernatant was recovered, and the concentration of anti-TNP IgE or anti-TNP IgG antibody was determined by an antigen and isotype specific immunoassay. […]
(§3) The same experimental methods were used for the compounds shown below, and IgE antibody production suppressive effects were evaluated. […] (Exemplary compound VI - (1)): methyl (6,7-dimethoxy-2-naphthylthio)acetate (Exemplary compound V - (4)): N-(2-methoxycarbonylphenyl)-(6,7-dihydroxy-2-naphthylthio)acetamide (Exemplary compound V - (2)): N-tetrazolyl(6,7-dihydroxy-2-naphthylthio)acetamide Table 2

In test [1] the test system is peritoneal mast cells of rat. The experiment in a line: Histamine release from IgE-sensitized peritoneal mast cells, DNP-As antigen (allergic release). Type of test: cell-based, Sprague-Dawley strain male rat. How it is done: (§4) To a Sprague-Dawley strain male rat (10 weeks or older) was intraperitoneally administered, under ether anesthesia, a diluted rat anti-DNP-As IgE serum at 2 ml/kg. After 16 hours, cells were recovered by washing intraperitoneally with a Tyrode solution containing 0.5% heparin (Ca⁺⁺, Mg⁺⁺, free). Mast cells (5 x 10⁴) separated by overlying in the 30% Ficoll/Tyrode solution and centrifugation were reliberated into the Tyrode solution (Ca⁺⁺, Mg⁺⁺) and incubated with the addition of the drug solution shown in Table 3-1, for 10 minutes, and then DNP-As and phosphatidylserine were added to final concentrations of 20 µg/ml and 25 µg/ml, respectively, followed by incubation for 10 minutes. The reaction was stopped by ice-cooling, and the histamine release in the supernatant was determined by fluorophotometry.

The subject of test [2] is anti-TNP IgE antibody production. Put plainly: IgE antibody production suppressive effect: anti-TNP IgE production by cultured spleen cells of TNP-KLH-immunized mouse. The test is classed as cell-based, BALB/C mouse. The conditions noted are these: for Anti-TMP antibody production IgE, value in brackets (IgE production dependency on the antigen) / Anti-TMP antibody production IgE: TNP-KLH 10 ng/ml; for Anti-TMP antibody production IgE, value in brackets (IgE production dependency on the antigen): no addition 8.5; for Anti-TMP antibody production IgE: no addition 13.0. The protocol:
as §1, §2
The values in the brackets ( ) indicate the values of the spontaneous IgE production amount observed when TNP-KLH was not added, and represent the IgE production dependency on the antigen.
as §3

Test [3] deals with peritoneal mast cells of rat. Put plainly: Histamine release from peritoneal mast cells induced by Compound 48/80 (non-allergic release). Type of test: cell-based, Sprague-Dawley strain male rat. The conditions noted are these: for inhibition at 10 µM: 10⁻⁵ M. How it is done: as §4, with “fluorophotometry. Regarding the non-allergy release, 5 x 10⁴ of mast cells were investigated by incubation with 0.5 µg/ml of Compound 48/80 for 10 minutes, after the addition of the drug solution shown in Table 3-2.” for “fluorophotometry.”

In test [4] the test system is Rat homologous PCA reaction. Put plainly: Rat homologous PCA reaction. Type of test: in vivo, Sprague-Dawley strain male rat. The conditions noted are these: p.o., 1 hour before antigen. The protocol:
The back of a Sprague-Dawley strain male rat (6 - 8 w) was depilated, and at one site on both sides thereof, 0.1 ml of a rat anti-ovalbumin IgE serum diluted with physiological saline was intradermally injected under ether anesthesia. After 48 hours, 25 mg/kg of ovalbumin, 25 mg/kg of Evans Blue were intravenously administered to induce the PCA reaction, and after 30 minutes, the skin was peeled off, dipped in a mixture of 0.3% Na₂SO₄·10H₂O/Acetate (3:7), and the dye amount infiltrated was quantitated by absorbance at 620 nm. The drug listed in Table 4 was suspended in 5% gum arabic solution and orally administered 1 hour before the antigen administration.

In the case of `COC(=O)CSc1ccc2cc(O)c(O)cc2c1` [Exemplary compound IV-(1), Methyl (6,7-dihydroxy-2-naphthylthio)acetate], the “5-HETE (Inhibitory ratio %)” value on Lipoxygenase worked out at 60%. Besides, the “LTB₄ (Inhibitory ratio %)” value on Lipoxygenase is given as 74%. For the same molecule, the “Amount of LTB₄ produced” value at Lipoxygenase (no addition 125) worked out at 32 ng/ml/plasma. For the same molecule, the “Amount of 5-HETE produced” value on Lipoxygenase (no addition 130) amounted to 52 ng/ml/plasma. The “suppressive effect against the production of anti-TNP IgG (in words)” value in the test with anti-TNP IgG is on record as “substantially no suppressive effect”. In addition, the “Anti-TMP antibody production IgG” value in the test on anti-TNP IgG (10⁻⁶ M) turned out to be 7.3 µg/mL; in the test on anti-TNP IgG (10⁻⁷ M) it was 7.5 µg/mL. Further, the “suppressive action against allergy histamine release (in words)” value in test [1] was “suppressive actions”. The “suppression of anti-TNP IgE antibody production (in words)” value in test [2] (10⁻⁵ to 10⁻⁷ M) is given as “suppressed the anti-TNP IgE antibody production dose-dependency”. Besides, the “Anti-TMP antibody production IgE, value in brackets (IgE production dependency on the antigen)” value in test [2] (10⁻⁶ M) was determined as 1.0 ng/mL; in test [2] (10⁻⁷ M), 2.5 ng/mL. Moreover, the “Anti-TMP antibody production IgE” value in test [2] (10⁻⁶ M) worked out at 5.5 ng/mL; in test [2] (10⁻⁷ M), 7.5 ng/mL. The “suppressive ratio (antigen-dependent IgE production)” value in test [2] (antigen-dependent IgE production compared with spontaneous IgE production) is recorded as 70 - 90%. Further, in test [3], the “suppressive action against non-allergy histamine release (in words)” value was “weak suppressive actions”. In addition, the inhibition at 100 µM in test [3] (Rattus norvegicus, Mast cell, 10 min, Experiment 1, 10⁻⁴ M, Compound 48/80 0.5 µg/ml, read-out: Inhibitory ratio (%) histamine release) was 23%. Also, the inhibition at 10 µM turned out to be 10.5% in test [3] (Rattus norvegicus, Mast cell, 10 min, Experiment 1, Compound 48/80 0.5 µg/ml, read-out: Inhibitory ratio (%) histamine release) and 2% in test [3] (Rattus norvegicus, Mast cell, 10 min, Experiment 2, Compound 48/80 0.5 µg/ml, read-out: Inhibitory ratio (%) histamine release). For the same molecule, the inhibition at 1 µM in test [3] (Rattus norvegicus, Mast cell, 10 min, Experiment 1, 10⁻⁶ M, Compound 48/80 0.5 µg/ml, read-out: Inhibitory ratio (%) histamine release) is -1.9%. The “Suppressive ratio (%) Experiment 1” value in test [4] (25 mg/kg) amounted to 14.8%. Also, the “Suppressive ratio (%) Experiment 2” value in test [4] (25 mg/kg) is recorded as 24.2%; in test [4] (50 mg/kg), 31.3%.

As to `O=C(O)CSc1ccc2cc(O)c(O)cc2c1` [Exemplary compound IV-(2), (6,7-Dihydroxy-2-naphthylthio)acetic acid], the “suppressive action against allergy histamine release (in words)” value in test [1] is given as “suppressive actions”. Moreover, in test [3], the “suppressive action against non-allergy histamine release (in words)” value is “weak suppressive actions”.

(Values after patent publication EP0419676B1, “THIONAPHTHALENE DERIVATIVES, METHOD OF PRODUCING THE SAME, AND ANTIALLERGIC AGENT CONTAINING THE SAME” (TEIJIN LIMITED, priority 1989, dated 1990).)
